One series deals with SH-SY5Y cells. Nature of the series: Neurite outgrowth (differentiation) in SH-SY5Y cells, Tubulin Tracker imaging. It counts as cell-based, human. The following applies: for neurite outgrowth or differentiation: FIG. 5. The protocol:
Transferrin is utilized in cell culture and in-vivo to deliver iron as a nutrient to cells. This is typically accomplished through the actions of holo-transferrin (HoloTf) binding to, and endocytosis by, its cognate receptor CD71, the transferrin receptor 1 (TfR1). Transferrin is typically believed to provide cells with iron as a means to promote and sustain metabolic activity. […] Induction of neuronal differentiation was assessed by morphological parameters of neurite formation (a key element typically used as a marker of neuronal differentiation, neuronal health, and function) according to the procedures of Agholme, 2010. J. of Alzheimer's Disease. Vol. 20:1p 069-108; and Dyberg et al., 2017. PNAS Vol 114 (32), E6603-E6612.
Undifferentiated SH-SY5Y cells were seeded into 96 well clear bottom plates in media containing 0.1% FBS. A serum-free base media was utilized as recommended by the supplier for SH-SY5Y cells (Sigma, Cat #94030304-1VL). Twenty-four hours after seeding cells, a 3× stock solution of ApoTf, final concentrations indicated on the x-axis, in serum free base media was added to the cells. ApoTf was obtained and purified from pooled human plasma and dosed at a final concentration of 0.2 mg/mL.
Cells were allowed to differentiate for 6 days. Neurite growth was assessed by imaging and image analysis. At the time of analysis, a 10× solution of Tubulin Tracker (Molecular Probes, T34075) and Hoechst 33342 (Molecular Probes #H3570) nuclear stain was prepared.
Briefly, Tubulin Tracker dissolved in DMSO was diluted 1:1 with Pluronic F-127 and further diluted into HBSS to generate a 10× solution. Hoechst 33342 was added to the HBSS-Tubulin Tracker solution at 10 μg/mL to generate a 10× nuclear stain. The 10× staining solution (10 μL) was added directly to treated assay wells and incubated at 37° C. for 30 minutes. Following incubation, 110 μL of 0.4% Trypan Blue was added directly to assay wells and imaged on a Molecular Devices Nano imaging instrument. Nine images/well were acquired in the blue (Nuclei) and green (Tubulin) fluorescent channels for each image.
After obtaining images, the MetaExpress Neurite Outgrowth analysis module (Molecular Devices) was used to identify cells, cell bodies, and quantify neurites. The total number of neurite branches were divided by the total number of cells imaged to account for different numbers of cells in each test well. The Outgrowth Fold Change was determined by setting the untreated control cells to a value of 1 with all other treatments shown relative to untreated control.
Undifferentiated SH-SY5Y cells were seeded and treated as described in Example 1. Neurite growth was assessed by imaging and image analysis. At the time of analysis, a 10× solution of Tubulin Tracker (Molecular Probes, T34075) and Hoechst 33342 (Molecular Probes #H3570) nuclear stain was prepared. Briefly, Tubulin Tracker dissolved in DMSO was diluted 1:1 with Pluronic F-127 and further diluted into HBSS to generate a 10× solution. Hoechst 33342 was added to the HBSS-Tubulin Tracker solution at 10 μg/mL to generate at 10× nuclear stain. The 10× staining solution (10 μL) was added directly to treated assay wells and incubated at 37° C. for 30 minutes. Following incubation, 110 μL of 0.4% Trypan Blue was added directly to assay wells and imaged on a Molecular Devices Nano imaging instrument. Nine images/well were acquired in the blue (Nuclei) and green (Tubulin) fluorescent channels for each image. After obtaining images, the MetaExpress Neurite Outgrowth analysis module (Molecular Devices) was used to identify cell bodies and quantify neurites. The total number of neurite branches were divided by the total number of cells imaged to account for different numbers of cells. The Outgrowth Fold Change was determined by setting the untreated control to a value of 1 with all other treatments shown relative to untreated control. ApoTf was obtained and purified from pooled human plasma and dosed at a final concentration of 0.2 mg/mL. […]

Another series relates to HIF-1α. The settings on record: cited from earlier work.
The nature of series [1]: Iron saturation by ICP-AES. It counts as physicochemical. The source says: The skilled person will appreciate that transferrin iron saturation levels can be readily determined without undue burden by quantifying the total iron levels in a sample having a known transferrin concentration. The total iron levels in sample can be measured by any one of a number of methods know by those of skill in the art. Suitable examples include: • Colorimetric assays—Iron is quantitated by measuring the intensity of the violet complex formed in the reaction between ferrozine and Fe^2+ in acetate buffer at 562 nm. Thiourea or other chemicals can be added to complex contaminant metals such Cu^2+, which can also bind with ferrozine and yield falsely elevated iron values. See Ceriotti et al., Improved direct specific determination of serum iron and total iron-binding capacity Clin Chem. 1980, 26(2), 327-31, the contents of which are incorporated herein by reference. • Inductively Coupled Plasma Atomic Emission Spectroscopy (ICP-AES)—is an emission spectroscopy technique that quantifies the mass percentage of metals in a sample. ICP-AES is based on the excitation of metal atoms/ions in the sample using a plasma (an ionized gas consisting of positive ions and free electrons) and analyzing the emission wavelength of the electromagnetic radiation, which is typical of that particular metal. Even though the technique is a standard analytical technique within common general knowledge of the skilled person, further information on ICP-AES can be found in Manley et al., Simultaneous Cu-, Fe-, and Zn-specific detection of metalloproteins contained in rabbit plasma by size-exclusion chromatography-inductively coupled plasma atomic emission spectroscopy. J Biol Inorg Chem. 2009, 14, 61-74, the contents of which are incorporated herein by reference.
The preferred method of determining the iron content of a sample for the purposes of the therapeutic method of the present invention is ICP-AES. The iron saturation of transferrin is then calculated based on the transferrin protein concentration, total iron content of the sample, and the fact that wild type transferrin has two iron-binding sites. Wild type human transferrin (molecular weight 79,750) can bind two iron atoms such that a sample containing 1 g of transferrin would be 100% saturated by 1.4 mg of iron.
Protein purity was determined by SDS-PAGE. Iron saturation levels were determined using ICP-AES in accordance with the procedures outlined in Manley et al., J Biol Inorg Chem (2009) 14:61-74, the contents of which are incorporated herein by reference.

“Also recorded” adds a separate entry of the source. Structures can show the parent of a compound that is named as a salt.

Take `CC(=O)N(O)CCCCCNC(=O)CCC(=O)N(O)CCCCCNC(=O)CCC(=O)N(O)CCCCCN` [DFO, Deferoxamine mesylate, reference compound]: in the series with SH-SY5Y cells (FIG. 3A, DFO versus ApoTf), the “neurite outgrowth / differentiation versus concentration” value is given as “little neurite formation beyond that concentration”.

As to `O=C(O)CNC(=O)c1c(O)c2ccccc2n(Cc2ccccc2)c1=O` [IOX2, N-[[1,2-Dihydro-4-hydroxy-2-oxo-1-(phenylmethyl)-3-quinolinyl]carbonyl]glycine, reference compound], the “neurite outgrowth or differentiation” value is “no neurite outgrowth or differentiation was observed” in the series with SH-SY5Y cells and “no effect was observable” with SH-SY5Y cells (4 μM). Further, the “concentration inducing up-regulation of HIF-1α” value in the series on HIF-1α (undifferentiated SH-SY5Y) was 1 µM.

As to `C[C@@H](N)[C@H]1CC[C@H](C(=O)Nc2ccncc2)CC1.Cl.Cl` [Y-27632, trans-4-[(1R)-1-Aminoethyl]-N-4-pyridinylcyclohexanecarboxamide dihydrochloride, reference compound], in the series with SH-SY5Y cells (FIG. 8, 50 μM), the “neurogenic effect, alone” value is “strongly neurogenic”.

Consider “ApoTransferrin A: ApoTf preparation, Grifols - prepared in house”, for which the “Iron Saturation (%)” value in series [1] came to 0.27%.

As for “ApoTransferrin B: ApoTf preparation, Grifols - prepared in house”, the “Iron Saturation (%)” value in series [1] was determined as 0.59%.

In the case of “ApoTransferrin C: ApoTf preparation, Grifols - prepared in house”, the “Iron Saturation (%)” value in series [1] was found to be 0.24%.

Take “HoloTransferrin: the iron-saturated form of transferrin, purified from pooled human plasma”: the “neurogenesis / differentiation of SH-SY5Y” value in the series on SH-SY5Y cells (FIG. 4, proteins at 0.2 mg/mL, listed as HoloTf) is “unable to induce differentiation; also recorded: lack of neurogenesis”. Moreover, the “Iron Saturation (%)” value in series [1] came out at 100%. In addition, the HIF-1α production entry in the series on HIF-1α (reported in US2016008437) is “can induce HIF-1α production”.

Consider “recombinant ApoTf: recombinant wild-type human transferrin, SEQ ID NO: 1, expressed in 293-6E cells”, for which the “neurogenesis (neurite outgrowth) of SH-SY5Y” value with SH-SY5Y cells (FIG. 3B, proteins at 0.2 mg/mL) is “did induce neurogenesis”.

Source of the values: patent publication US20230265167A1, “COMPOSITIONS HAVING NEUROREGENERATIVE APPLICATIONS” (GRIFOLS WORLDWIDE OPERATIONS LIMITED, priority 2020, published 2023).
